Measured values: ChEMBL document CHEMBL3046873, “Synthesis of antihyperglycemic, -glucosidase inhibitory, and DPPH free radical scavenging furanochalcones” (Med Chem Res, 2012)
Activity calls are given as the source filed them. The rule behind the calls is not given here.

Tests used:
[1] = tested on: Radical scavenging activity; assay: Antioxidant activity assessed as concentration required for 50% DPPH free radical scavenging activity after 30 min by spectrophotometric analysis; format: functional
[2] = tested on: Radical scavenging activity; assay: Antioxidant activity assessed as DPPH free radical scavenging activity at 20 ug/ml after 30 min by spectrophotometric analysis; format: functional
[3] = biological target: Lysosomal alpha-glucosidase (Rattus norvegicus) (UniProt Q6P7A9); assay: Inhibition of rat intestinal alpha-glucosidase using para-nitrophenyl-alpha-D-glucopyranoside as substrate at 25 ug/ml incubated for 5 min prior to substrate addition measured after 5 min by spectrophotometric analysis
Lysosomal alpha-glucosidase (Rattus norvegicus), sequence (Q6P7A9 whole entry): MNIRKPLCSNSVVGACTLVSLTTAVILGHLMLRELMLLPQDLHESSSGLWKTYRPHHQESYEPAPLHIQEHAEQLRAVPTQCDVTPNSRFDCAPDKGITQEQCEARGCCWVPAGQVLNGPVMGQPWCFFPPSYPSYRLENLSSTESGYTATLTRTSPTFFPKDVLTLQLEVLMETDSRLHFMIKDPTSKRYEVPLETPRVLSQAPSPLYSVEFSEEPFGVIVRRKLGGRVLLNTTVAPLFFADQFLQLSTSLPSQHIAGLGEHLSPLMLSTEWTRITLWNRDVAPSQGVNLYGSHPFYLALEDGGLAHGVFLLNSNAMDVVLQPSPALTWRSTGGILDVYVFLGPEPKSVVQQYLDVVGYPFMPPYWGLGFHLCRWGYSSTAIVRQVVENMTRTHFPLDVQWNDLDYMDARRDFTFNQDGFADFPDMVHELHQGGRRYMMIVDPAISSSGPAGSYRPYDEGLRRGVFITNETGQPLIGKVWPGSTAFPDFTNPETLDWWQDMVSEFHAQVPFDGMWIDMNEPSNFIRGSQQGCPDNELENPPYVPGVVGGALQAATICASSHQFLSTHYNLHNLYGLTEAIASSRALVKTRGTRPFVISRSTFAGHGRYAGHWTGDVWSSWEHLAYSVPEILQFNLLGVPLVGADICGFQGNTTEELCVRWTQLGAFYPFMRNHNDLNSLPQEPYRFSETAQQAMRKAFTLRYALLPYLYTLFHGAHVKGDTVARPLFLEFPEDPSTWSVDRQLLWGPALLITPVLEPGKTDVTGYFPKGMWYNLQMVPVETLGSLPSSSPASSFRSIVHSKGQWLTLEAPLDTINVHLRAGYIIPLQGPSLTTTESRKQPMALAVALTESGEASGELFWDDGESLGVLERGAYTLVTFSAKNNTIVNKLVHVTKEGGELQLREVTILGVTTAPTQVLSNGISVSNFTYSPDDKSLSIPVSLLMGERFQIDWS

Rattus norvegicus [4] = assay: Antihyperglycemic activity in starch-induced post-parandial hyperglycemic Rattus norvegicus Wistar (rat) model assessed as decrease in plasma glucose level at 50 mg/kg, po administered via gastric intubation by glucose-oxidase test; format: functional, organism-based; parameters: dose 50 mg/kg; settings: TDE = time-dependent effect
Rattus norvegicus [5] = assay: Antihyperglycemic activity in starch-induced post-parandial hyperglycemic Rattus norvegicus Wistar (rat) model assessed as decrease in plasma AUC at 50 mg/kg, po administered via gastric intubation administered 15 min followed by starch challenge measured after 30 to 120 min by glucose-oxidase test; format: functional, organism-based; parameters: dose 50 mg/kg
Rattus norvegicus [6] = assay: Antihyperglycemic activity in starch-induced post-parandial hyperglycemic Rattus norvegicus Wistar (rat) model assessed as decrease in plasma glucose level at 10 mg/kg, po administered via gastric intubation by glucose-oxidase test; format: functional, organism-based; parameters: dose 10 mg/kg; settings: TDE = time-dependent effect
Rattus norvegicus [7] = assay: Antihyperglycemic activity in starch-induced post-parandial hyperglycemic Rattus norvegicus Wistar (rat) model assessed as decrease in plasma AUC at 10 mg/kg, po administered via gastric intubation administered 15 min followed by starch challenge measured after 30 to 120 min by glucose-oxidase test; format: functional, organism-based; parameters: dose 10 mg/kg

| Compound | Activity [1] [µM] | Activity [2] [%] | inhibition [3] [%] | other results |
| --- | --- | --- | --- | --- |
| O=C(/C=C/c1ccc(O)cc1)c1ccc2occc2c1O | 17.8 | 75.8 | 65.7 | – |
| COc1ccc(/C=C/C(=O)c2ccc3occc3c2O)cc1 | – | – | 94.8 | – |
| O=C(/C=C/c1ccc(O)c(O)c1)c1ccc2occc2c1O | 29.7 | 67.9 | 61.5 | – |
| O=C(/C=C/c1ccc(O)c(O)c1)c1cc2ccoc2cc1O | 26.2 | 69.8 | 62.7 | – |
| COc1cc(/C=C/C(=O)c2cc3ccoc3cc2O)ccc1O | – | 42.1 | 52.8 | – |
| COc1ccc(/C=C/C(=O)c2ccc3occc3c2O)cc1OC | – | – | 89.5 | Activity (Rattus norvegicus [4]): tde; Activity (Rattus norvegicus [5]): Active |
| C[C@H]1O[C@H](O[C@H]2[C@H](O)[C@@H](O)[C@@H](O[C@H]3[C@H](O)[C@@H](O)C(O)O[C@@H]3CO)O[C@@H]2CO)[C@H](O)[C@@H](O)[C@@H]1N[C@H]1C=C(CO)[C@@H](O)[C@H](O)[C@H]1O (stereo not given in full) | – | – | – | Activity (Rattus norvegicus [6]): tde; Activity (Rattus norvegicus [7]): Active |
| COc1cc(/C=C/C(=O)c2ccc3occc3c2O)ccc1O | – | 54.2 | 45 | – |
| COc1cc(OC)c(OC)cc1/C=C/C(=O)c1cc2ccoc2cc1O | – | 17.1 | 68 | – |
| Cc1c(C)c2c(c(C)c1O)CCC(C)(C(=O)O)O2 (stereo not given) | 4.8 | 99.5 | – | – |
| COc1ccc(/C=C/C(=O)c2cc3ccoc3cc2O)cc1 | – | – | 48.9 | – |
| O=C(/C=C/c1ccc(O)cc1)c1cc2ccoc2cc1O | 12 | 73.2 | 8.77 | – |
| COc1ccc(/C=C/C(=O)c2cc3ccoc3cc2O)cc1OC | – | 8.78 | 89.3 | – |
| O=C(/C=C/c1ccccc1)c1ccc2occc2c1O | – | 7.57 | 20.8 | – |
| O=C(/C=C/c1ccccc1)c1cc2ccoc2cc1O | – | 9.91 | 67.6 | – |
| COc1ccc(/C=C/C(=O)c2ccc3occc3c2O)c(OC)c1OC | – | 7.3 | 67.3 | – |
